Results from paper PMC6754302 (Cell chemical biology, 2019).
Entries after “also recorded” stand apart in the source; their conditions may differ.

Columns and labels:
[1] = biological target: T1, caspase-6 (C6) (Homo sapiens, UniProt P55212); assay: TR-FRET-based C6 activity assay with HTT1–1212 as substrate; format: biochemical; details: for shift of dose-response curve with pre-incubation time: 0 min vs 60 min pre-incubation of C6 with compound
T1 sequence (P55212 24-179 limits assumed): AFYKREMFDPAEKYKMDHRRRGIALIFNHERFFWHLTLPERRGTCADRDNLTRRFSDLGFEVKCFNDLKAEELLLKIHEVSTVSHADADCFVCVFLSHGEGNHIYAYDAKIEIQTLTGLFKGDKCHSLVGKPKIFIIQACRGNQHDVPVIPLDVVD
T1 sequence (P55212 194-293 limits assumed): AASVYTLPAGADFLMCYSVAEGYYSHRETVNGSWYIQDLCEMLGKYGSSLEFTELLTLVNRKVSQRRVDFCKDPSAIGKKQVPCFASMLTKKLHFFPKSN

[2] = biological target: T2, intracellular C6 activity (Homo sapiens, UniProt P55212); assay: Intracellular lamin A cleavage ELISA; format: cell-based
T2 sequence (P55212 24-293): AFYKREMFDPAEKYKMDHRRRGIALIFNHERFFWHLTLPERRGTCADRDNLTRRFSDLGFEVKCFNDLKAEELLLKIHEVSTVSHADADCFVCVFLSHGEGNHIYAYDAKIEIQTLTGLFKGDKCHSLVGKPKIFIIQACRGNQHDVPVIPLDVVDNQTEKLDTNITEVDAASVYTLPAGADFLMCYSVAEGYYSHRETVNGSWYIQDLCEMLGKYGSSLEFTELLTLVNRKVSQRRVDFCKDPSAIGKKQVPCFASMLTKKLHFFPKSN

[3] = biological target: T1, caspase-6 (C6); assay: C6 activity assay using the VEID-AFC peptide as a substrate; format: biochemical
[4] = test system: pro-C6 (C6 zymogen); assay: LE22 labelling of C6 in lysates of transfected COS-7 cells; format: cell-based, human; details: 10 μM in the culture medium, co-transfection with mHTT1–586
[5] = biological target: T3, pro-C6 (C6 zymogen) (Homo sapiens, UniProt P55212); assay: as above; format: cell-based
T3 sequence (P55212 1-293): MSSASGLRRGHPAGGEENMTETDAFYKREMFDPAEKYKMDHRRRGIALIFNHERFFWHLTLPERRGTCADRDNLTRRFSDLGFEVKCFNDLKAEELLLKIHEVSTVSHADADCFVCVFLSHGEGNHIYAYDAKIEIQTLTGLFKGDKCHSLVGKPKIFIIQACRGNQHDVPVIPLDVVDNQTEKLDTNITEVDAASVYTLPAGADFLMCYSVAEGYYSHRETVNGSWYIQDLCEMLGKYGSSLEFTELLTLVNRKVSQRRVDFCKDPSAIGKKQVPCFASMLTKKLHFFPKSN

[6] = biological target: T4, Recombinant C6 enzyme (Homo sapiens, UniProt P55212); details: 10 μM inhibitor
T4 sequence (P55212 24-179 limits assumed): T1 sequence (P55212 24-179 limits assumed)
T4 sequence (P55212 194-293 limits assumed): T1 sequence (P55212 194-293 limits assumed)

[7] = biological target: T5, C6 (Homo sapiens, UniProt P55212); format: cell-based; details: for intracellular C6-mediated cleavage of HTT1–1212 (HTT1–586 fragment): COS-7 cells co-transfected with C6 and HTT1–1212, compound in the media
T5 sequence (P55212 24-293): T2 sequence (P55212 24-293)

[8] = biological target: T4, Recombinant C6 enzyme; assay: Washout experiment; format: biochemical; details: read-out: inhibition of C6 activity after washout
[9] = biological target: T6, C6-HTT interaction (Homo sapiens, UniProt P55212); assay: Co-immunoprecipitation of HTT with DDK-tagged C6 from co-transfected COS-7 cells; format: cell-based
T6 sequence (P55212 24-293): T2 sequence (P55212 24-293)

## O=c1oc(C#Cc2ccccc2)nc(O)c1Cc1ccccc1 [PG3d, 5-Benzyl-4-hydroxy-2-(phenylethynyl)-6H-1,3-oxazin-6-one]
[1]
  inhibition of HTT proteolysis: strong inhibition
  shift of dose-response curve with pre-incubation time: shift towards a lower IC50 value
[2]
  inhibition of lamin A proteolysis: strong inhibition
[3]
  inhibitory effect on C6-mediated cleavage of small peptide substrates (VEID-AFC): minimal inhibitory effect
[4]
  LE22 labelling for deltaPro and D23A C6: normalized the amount of LE22 labelling
[5]; 10 μM in the culture medium, co-transfection with mHTT1–586
  mHTT1–586-induced increase of LE22 binding to pro-C6 (C6wt): completely reversed
[6]
  LE22 labelling of C6 after inhibitor pre-incubation: did not block accessibility of the active site
[7]
  intracellular C6-mediated cleavage of HTT1–1212 (HTT1–586 fragment): inhibited
[8]
  inhibition at 10 µM: 100%
[9]; PG3d 10 μM in the media, mHTT1–1212
  reduction in HTT co-immunoprecipitation: 50%

## CC(C)[C@H](NC(=O)c1ccc2ccccc2n1)C(=O)N[C@@H](CC(=O)O)C(=O)COc1c(F)cccc1F [Q-VD-OPh]
[5]; C6-transfected cells treated with Q-VD-OPh prior to lysis
  proportion of pro-C6 and p18-C6 labelled with LE22: decreased
[7]; COS-7 cells co-transfected with C6 and HTT1–1212, Q-VD-OPh 3 μM
  intracellular generation of active C6 subunits (p18): reduces the intracellular generation of active C6 subunits
[7]
  intracellular C6-mediated cleavage of HTT1–1212 (HTT1–586 fragment): lowers HTT1–586 fragment levels
[9]; Q-VD-OPh 3 μM
  effect on co-immunoprecipitation of HTT with C6: not prevented; also recorded: no significant difference

## VDVAD-CHO [reference compound]
[1]
  shift of dose-response curve with pre-incubation time: did not exhibit time-dependent behaviour
[6]
  LE22 labelling of C6 after inhibitor pre-incubation: is replaced by the irreversible binding of the LE22 probe

## zVAD-fmk
[6]
  LE22 labelling of C6 after inhibitor pre-incubation: prevented labelling of C6 with LE22
